According to article PMC3131558, “Plitidepsin Has a Safe Cardiac Profile: A Comprehensive Analysis” (Marine Drugs, 2011):

What was measured:
[1] = Population PK exposure (Cmax, AUC0-28day) by CAE category; type: in vivo, human; settings: whole blood, mean (SD)
Procedure: (§1) Pharmacokinetic (PK) data available from individual clinical trials (four phase I studies and nine phase II studies; see details in Table 1) and/or simulated data using population PK analyses were correlated with the occurrence of CAEs. In the individual studies, doses ranged from 0.13 to 8.00 mg/m^2, and were administered as 1 h or 24 h infusion weekly, 3 h or 24 h infusion bi-weekly, or 1 h infusion for 5 consecutive days every 3 weeks. To evaluate the potential relationship between blood plitidepsin concentrations and QTc and HR values, a total of 90 patients who had ECGs performed during treatment with plitidepsin and PK data during first infusion were analyzed. The plitidepsin concentration at the time when the ECG had been obtained was calculated using the whole blood plitidepsin concentration at the ECG times in which they were simulated taking the individual Bayesian PK parameters of the final population PK model and considering the real treatment history of each patient. In total, 411 patients and 5585 plitidepsin concentration measurements (including 2900 blood and 2685 plasma concentrations) were pooled in the population PK analysis. An open, 3-compartment disposition model with linear elimination and linear distribution from the central compartment to peripheral compartments was used to describe the PK of plitidepsin in plasma. Between and within subject variabilities were assumed to be log-normally distributed. PK exposure parameters (maximum concentration in plasma (Cmax) and area under the curve (AUC) from day 0 to day 28) and other dose-independent PK parameters (clearance, half-life, etc.) were used to evaluate the relationship between patient PK characteristics and the appearance of CAEs. For the statistical analysis of the relationship between the exposure parameters and the development or not of a CAE, a logistic regression model was used to analyze the incidence of the event.

[2] = system: adult patients with advanced solid tumors or hematological malignancies; assay: Multivariate logistic regression of variables associated with CAEs; type: in vivo, human; settings: overall multivariate analysis
Source text: To avoid potential bias, candidate variables were explored by univariate analysis regardless of the relationship attributed to the CAE with plitidepsin by the investigators (related, unrelated or unknown). Univariate logistic regression was used to study the relationship between the occurrence of a CAE and categorical and continuous patient and disease characteristics, and other observed toxicities or laboratory abnormalities. Those variables found to be clinically relevant and/or statistically significant (or of borderline significance) in this analysis were further assessed as covariates in a multivariate analysis using logistic regression with stepwise variable selection and multiple correspondence analysis methods.

[3] = system: adult patients with advanced solid tumors or hematological malignancies; assay: Paired ECGs (QTc, heart rate) before and after plitidepsin infusion; type: in vivo, human; settings: for QTc Pre-infusion / HR Post-Infusion / QTc Post-infusion / HR Pre-Infusion: mean (SD)
Procedure: Selected ECG variables (Bazett’s corrected QT interval (QTc) and heart rate (HR)) were analyzed in patients with paired ECG data (i.e., available before and after plitidepsin infusion, n = 136).
as §1

[4] = system: human malignant cell lines; settings: in vitro and in vivo, at nanomolar concentration ranges; cited from earlier work
Source text: Aplidin® (plitidepsin) is a cyclic depsipeptide originally isolated from the Mediterranean tunicate Aplidium albicans and currently produced by chemical synthesis. Plitidepsin has been proven to be active against several human malignant cell lines both in vitro and in vivo at nanomolar concentration ranges.

[5] = All (n = 136 pairs), ECG within 4 h after end of infusion
[6] = Myocardial injury (n = 4 pairs)
[7] = No cardiac event (n = 116 pairs)
[8] = Rhythm abnormalities (n = 18 pairs)

plitidepsin
AUC0–28day ([1]; Irregular supraventricular tachycardia (n = 12), simulated): 3197 (3640) h·ng/mL | AUC0–28day ([1]; Miscellaneous Cardiac Adverse Event (n = 7), simulated): 2645 (1672) h·ng/mL | AUC0–28day ([1]; No Cardiac adverse Event (n = 375), simulated from population PK model): 3374 (4336) h·ng/mL | AUC0–28day ([1]; Other myocardial injury (n = 4), simulated): 4791 (6136) h·ng/mL | AUC0–28day ([1]; Possible ischemic related (n = 7), simulated): 3668 (1696) h·ng/mL | AUC0–28day ([1]; Regular supraventricular tachycardia (n = 6), simulated): 5277 (3997) h·ng/mL | AUC0–28day ([1]; Rhythm Abnormalities (n = 25), simulated): 3435 (3372) h·ng/mL | OR for CAE: Tumor type, Prostate or pancreatic cancer ([2]; p = 0.0017): 4.217 | OR for CAE: Cardiac risk and relevant concomitant medication at baseline, Presence ([2]; p = 0.0072): 3.034 | OR for CAE: Hypokalemia (worst per patient), Grade ≥ 2 ([2]; p = 0.0095): 3.851 | OR for CAE: Myalgia (at baseline), Presence ([2]; p = 0.0140): 5.015 | OR for CAE: Hemoglobin (worst per patient), <10 g/dL ([2]; p = 0.0208): 2.195 | QTc Pre-infusion ([3]; All (n = 136 pairs), Bazett's corrected): 426.77 (38.78) msec | HR Post-Infusion [3, 5]: 82.46 (13.17) bpm | QTc Post-infusion [3, 5]: 429.28 (40.25) msec | HR Pre-Infusion ([3]; All (n = 136 pairs)): 79.07 (15.33) bpm | HR Post-Infusion ([3]; Cardiac event (n = 20 pairs)): 80.10 (10.87) bpm | HR Pre-Infusion ([3]; Cardiac event (n = 20 pairs)): 74.05 (13.39) bpm | QTc Post-infusion ([3]; Cardiac event (n = 20 pairs)): 442.60 (32.09) msec | QTc Pre-infusion ([3]; Cardiac event (n = 20 pairs)): 437.75 (28.65) msec | HR Post-Infusion [3, 6]: 77.75 (12.55) bpm | HR Pre-Infusion [3, 6]: 68.75 (10.34) bpm | QTc Post-infusion [3, 6]: 437.50 (15.20) msec | QTc Pre-infusion [3, 6]: 429.00 (29.15) msec | HR Post-Infusion [3, 7]: 82.86 (13.53) bpm | HR Pre-Infusion [3, 7]: 79.92 (15.53) bpm | QTc Post-infusion [3, 7]: 426.98 (41.18) msec | QTc Pre-infusion [3, 7]: 424.88 (40.06) msec | HR Post-Infusion [3, 8]: 80.44 (11.30) bpm | HR Pre-Infusion [3, 8]: 75.44 (13.39) bpm | QTc Post-infusion [3, 8]: 442.67 (33.79) msec | QTc Pre-infusion [3, 8]: 439.44 (29.79) msec | Relationship between whole blood plitidepsin concentrations and QTc interval ([3]; all ECGs during treatment (263 ECGs), simulated concentrations): No apparent relationship | Activity against several human malignant cell lines [4]: active
